Assay results from patent publication US9029386B2, “Pyridine derivatives useful as kinase inhibitors” (YM Biosciences Australia Pty Ltd, priority 2006, dated 2015).

What was measured:
[1] = target: T1, kinase domain of human CSF1-R (Homo sapiens, UniProt P07333); assay: Alphascreen protein tyrosine kinase assay, CSF-1R; assay type: biochemical
T1 construct: from codon I553 to Q961; made in house; host or cells: Sf9 insect cells (baculovirus)
T1 sequence (P07333 553-961): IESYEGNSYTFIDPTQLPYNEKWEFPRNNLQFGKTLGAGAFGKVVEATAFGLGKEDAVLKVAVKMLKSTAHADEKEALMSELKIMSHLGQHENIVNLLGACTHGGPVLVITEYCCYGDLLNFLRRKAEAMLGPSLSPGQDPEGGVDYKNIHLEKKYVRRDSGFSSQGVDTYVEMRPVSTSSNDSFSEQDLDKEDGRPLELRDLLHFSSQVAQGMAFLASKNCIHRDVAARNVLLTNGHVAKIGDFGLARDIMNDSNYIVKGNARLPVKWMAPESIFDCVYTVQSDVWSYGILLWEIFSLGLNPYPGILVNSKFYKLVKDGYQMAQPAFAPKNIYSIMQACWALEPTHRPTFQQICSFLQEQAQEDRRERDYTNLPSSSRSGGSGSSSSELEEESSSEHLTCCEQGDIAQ
Description: (§1) For screening purposes, compounds were diluted in 96 well plates at a concentration of 20 μM. Plates were warmed at 37° C. for 30 minutes before assay.
The kinase domain of human CSF1-R from codon I553 to Q961 was cloned into the pDEST-20 expression vector (Invitrogen). The CSF1-R plasmid was then transformed into competent DH10Bac cells (Gibco), and the recombinant baculovirus produced prepared for transfection into Sf9 insect cells.
(§2) Baculovirus preparations from each of construct were infected into five liters of SF9 cells (Invitrogen) grown in SF-900 medium (Invitrogen) to a cell density of approximately 1−2×10^6 cells/ml. […] Cells were harvested and lysed. Tyrosine kinase domains were purified by affinity chromatography on a glutathione-agarose column (Scientifix Pty. Ltd. catalog #: GSH-200).
(§3) Kinase assays were performed in 384 well Optiplates (Packard) using an Alphascreen Protein Tyrosine Kinase kit. […] Alphascreen phosphotyrosine acceptor beads followed by streptavidin donor beads were added under subdued light. The Alphascreen plates were read on a Packard Fusion Alpha. Inhibitors were added to the assays thirty minutes prior to the addition of ATP. Inhibitors were added in aqueous DMSO, with DMSO concentrations never exceeding 1%.

[2] = target: T2, kinase domain of human c-kit (Homo sapiens, UniProt P10721); assay: Alphascreen protein tyrosine kinase assay, c-KIT; assay type: biochemical
T2 construct: from codon M552 to end; made in house; host or cells: Sf9 insect cells (baculovirus)
T2 sequence (P10721 552-976 limits assumed): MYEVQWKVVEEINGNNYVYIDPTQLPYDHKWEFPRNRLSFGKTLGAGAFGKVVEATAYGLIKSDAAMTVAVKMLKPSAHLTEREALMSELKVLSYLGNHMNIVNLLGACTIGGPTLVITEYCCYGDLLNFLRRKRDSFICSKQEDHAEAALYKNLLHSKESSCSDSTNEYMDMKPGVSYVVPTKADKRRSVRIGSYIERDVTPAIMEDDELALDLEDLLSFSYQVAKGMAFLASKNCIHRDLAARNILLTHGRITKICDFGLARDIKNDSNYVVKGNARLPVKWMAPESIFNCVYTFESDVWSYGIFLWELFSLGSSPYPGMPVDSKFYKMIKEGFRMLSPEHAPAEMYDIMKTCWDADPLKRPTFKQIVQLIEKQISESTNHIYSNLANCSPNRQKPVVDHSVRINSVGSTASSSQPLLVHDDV
Description: as §1
The kinase domain of human c-kit from codon M552 to end was cloned into the pDEST-20 expression vector (Invitrogen). The c-kit plasmid was then transformed into competent DH10Bac cells (Gibco), and the recombinant baculovirus produced prepared for transfection into Sf9 insect cells.
as §2, §3

FLT-3 tyrosine kinase = target: T3, FLT-3 tyrosine kinase (Homo sapiens, UniProt P36888); assay: Alphascreen protein tyrosine kinase assay, FLT-3; assay type: biochemical; details: read-out: Flt3
T3 construct: purchased Upstate Cell Signalling Solutions, CA, USA 14-500
T3 sequence (P36888 27-993): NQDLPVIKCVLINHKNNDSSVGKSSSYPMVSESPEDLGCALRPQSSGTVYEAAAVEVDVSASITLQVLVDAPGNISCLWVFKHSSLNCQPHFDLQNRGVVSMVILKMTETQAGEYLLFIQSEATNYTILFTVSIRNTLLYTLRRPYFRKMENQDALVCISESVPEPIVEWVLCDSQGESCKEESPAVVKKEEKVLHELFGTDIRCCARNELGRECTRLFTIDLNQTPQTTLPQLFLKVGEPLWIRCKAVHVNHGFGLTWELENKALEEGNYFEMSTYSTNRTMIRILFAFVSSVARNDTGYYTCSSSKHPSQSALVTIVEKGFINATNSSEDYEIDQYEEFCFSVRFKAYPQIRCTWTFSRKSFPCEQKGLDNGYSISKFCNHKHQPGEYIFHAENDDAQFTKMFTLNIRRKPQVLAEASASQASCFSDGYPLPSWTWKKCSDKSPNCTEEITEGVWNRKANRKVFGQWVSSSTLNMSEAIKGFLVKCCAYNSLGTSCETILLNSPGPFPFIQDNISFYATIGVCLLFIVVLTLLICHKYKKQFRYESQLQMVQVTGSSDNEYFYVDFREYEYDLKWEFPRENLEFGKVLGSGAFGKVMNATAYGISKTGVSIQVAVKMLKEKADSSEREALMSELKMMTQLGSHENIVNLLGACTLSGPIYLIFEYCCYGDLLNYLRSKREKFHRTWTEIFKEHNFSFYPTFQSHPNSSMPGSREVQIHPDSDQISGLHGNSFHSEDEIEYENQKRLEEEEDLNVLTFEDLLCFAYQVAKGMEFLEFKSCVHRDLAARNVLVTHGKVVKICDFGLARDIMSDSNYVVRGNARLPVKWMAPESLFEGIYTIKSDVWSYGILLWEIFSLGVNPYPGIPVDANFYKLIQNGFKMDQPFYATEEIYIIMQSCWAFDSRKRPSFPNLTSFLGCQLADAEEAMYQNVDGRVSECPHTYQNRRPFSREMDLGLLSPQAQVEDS

PDGFR β tyrosine kinase = target: T4, PDGFR β tyrosine kinase (Homo sapiens, UniProt P09619); assay: Alphascreen protein tyrosine kinase assay, PDGFRβ; assay type: biochemical
T4 construct: purchased Upstate Cell Signalling Solutions, CA, USA 14-463
T4 sequence (P09619 33-1106): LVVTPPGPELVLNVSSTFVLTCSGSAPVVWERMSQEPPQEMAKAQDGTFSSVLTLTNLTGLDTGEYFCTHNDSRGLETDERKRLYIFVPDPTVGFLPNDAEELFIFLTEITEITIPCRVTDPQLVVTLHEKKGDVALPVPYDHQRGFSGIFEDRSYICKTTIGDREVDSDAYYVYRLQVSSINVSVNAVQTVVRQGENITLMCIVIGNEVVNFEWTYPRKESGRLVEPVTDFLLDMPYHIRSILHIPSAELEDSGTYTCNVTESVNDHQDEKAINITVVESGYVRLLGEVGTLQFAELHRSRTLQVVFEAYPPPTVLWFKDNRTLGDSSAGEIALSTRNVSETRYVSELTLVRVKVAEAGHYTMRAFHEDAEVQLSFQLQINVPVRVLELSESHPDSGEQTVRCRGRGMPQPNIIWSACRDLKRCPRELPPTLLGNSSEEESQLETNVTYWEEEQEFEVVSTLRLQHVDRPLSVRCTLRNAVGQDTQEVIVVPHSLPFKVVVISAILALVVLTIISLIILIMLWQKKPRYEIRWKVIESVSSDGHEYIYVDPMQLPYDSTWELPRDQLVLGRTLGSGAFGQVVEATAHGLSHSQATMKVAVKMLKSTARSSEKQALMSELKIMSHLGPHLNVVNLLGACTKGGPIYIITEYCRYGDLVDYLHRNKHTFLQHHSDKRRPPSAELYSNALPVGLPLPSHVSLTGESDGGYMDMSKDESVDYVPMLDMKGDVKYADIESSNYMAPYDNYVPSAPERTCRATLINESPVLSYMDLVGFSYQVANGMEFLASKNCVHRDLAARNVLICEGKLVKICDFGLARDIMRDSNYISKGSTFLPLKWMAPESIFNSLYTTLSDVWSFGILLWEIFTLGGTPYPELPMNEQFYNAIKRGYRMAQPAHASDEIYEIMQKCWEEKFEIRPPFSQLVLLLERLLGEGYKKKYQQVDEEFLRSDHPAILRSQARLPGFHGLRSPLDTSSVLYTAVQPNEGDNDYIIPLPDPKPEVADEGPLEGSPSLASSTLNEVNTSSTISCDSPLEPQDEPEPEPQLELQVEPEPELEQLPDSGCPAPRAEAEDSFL

KDR protein kinase = target: T5, KDR protein kinase (Homo sapiens, UniProt P35968); assay: Alphascreen protein tyrosine kinase assay, KDR; assay type: biochemical
T5 construct: purchased Millipore 14-630M
T5 sequence (P35968 20-1356): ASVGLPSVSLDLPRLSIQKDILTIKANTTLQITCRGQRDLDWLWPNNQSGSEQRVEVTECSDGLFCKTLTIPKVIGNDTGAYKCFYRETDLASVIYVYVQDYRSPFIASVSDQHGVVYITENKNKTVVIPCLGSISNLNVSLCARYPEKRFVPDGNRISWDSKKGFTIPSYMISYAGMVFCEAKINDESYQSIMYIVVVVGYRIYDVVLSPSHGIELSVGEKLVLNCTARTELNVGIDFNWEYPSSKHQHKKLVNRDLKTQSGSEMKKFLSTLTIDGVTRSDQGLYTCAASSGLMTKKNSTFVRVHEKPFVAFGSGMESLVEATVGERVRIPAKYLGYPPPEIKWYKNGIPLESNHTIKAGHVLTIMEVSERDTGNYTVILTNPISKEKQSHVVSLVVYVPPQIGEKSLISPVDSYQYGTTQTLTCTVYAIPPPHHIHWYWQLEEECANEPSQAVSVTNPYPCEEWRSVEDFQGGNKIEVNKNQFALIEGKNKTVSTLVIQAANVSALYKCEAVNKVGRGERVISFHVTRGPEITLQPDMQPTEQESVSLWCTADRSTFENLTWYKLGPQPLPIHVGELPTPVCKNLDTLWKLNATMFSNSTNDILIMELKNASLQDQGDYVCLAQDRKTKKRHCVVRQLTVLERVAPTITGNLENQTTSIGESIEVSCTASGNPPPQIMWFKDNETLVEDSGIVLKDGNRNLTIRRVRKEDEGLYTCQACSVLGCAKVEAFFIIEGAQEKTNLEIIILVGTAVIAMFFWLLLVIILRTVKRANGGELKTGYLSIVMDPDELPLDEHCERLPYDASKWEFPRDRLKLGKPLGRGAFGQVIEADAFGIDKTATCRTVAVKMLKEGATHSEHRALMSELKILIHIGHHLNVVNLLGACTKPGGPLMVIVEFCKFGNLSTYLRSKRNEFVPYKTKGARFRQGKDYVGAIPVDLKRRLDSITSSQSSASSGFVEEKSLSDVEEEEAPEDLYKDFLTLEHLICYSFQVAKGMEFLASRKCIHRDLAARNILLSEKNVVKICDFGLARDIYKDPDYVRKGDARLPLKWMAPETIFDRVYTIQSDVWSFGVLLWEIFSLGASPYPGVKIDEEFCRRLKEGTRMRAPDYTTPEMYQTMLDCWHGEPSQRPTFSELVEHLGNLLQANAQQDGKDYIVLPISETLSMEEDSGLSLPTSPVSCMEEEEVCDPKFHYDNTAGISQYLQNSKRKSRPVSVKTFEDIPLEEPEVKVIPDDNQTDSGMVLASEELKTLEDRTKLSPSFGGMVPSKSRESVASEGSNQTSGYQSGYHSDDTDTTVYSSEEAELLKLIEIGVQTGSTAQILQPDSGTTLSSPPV
Description: as §1
FLT-3 and PDGFR β tyrosine kinase enzymes were purchased from Upstate Cell Signalling Solutions, CA, USA (flt-3 catalog #: 14-500 and PDGFR β catalog #: 14-463). KDR protein kinase enzyme was purchased from Millipore (catalogue #14-630M).
Kinase assays were performed in 384 well Optiplates (Packard) using an Alphascreen Protein Tyrosine Kinase kit. […] The biotinylated peptides Biotin-[…]-NH2 for c-KIT and PDGFRβ and Biotin-[…]-NH2 for CSF1-R and FLT-3 (final concentration 0.1-3 μM) were used as substrates. Alphascreen phosphotyrosine acceptor beads followed by streptavidin donor beads were added under subdued light. The Alphascreen plates were read on a Packard Fusion Alpha. Inhibitors were added to the assays thirty minutes prior to the addition of ATP. Inhibitors were added in aqueous DMSO, with DMSO concentrations never exceeding 1%.

mNFS-60 = assay: Cellular assay (Alamar Blue), mNFS-60 with human M-CSF; assay type: cell-based; details: human M-CSF at 20 ng/ml, 72 hr
Description: (§4) Cells for the assays were prepared by harvesting cells from culture, and then diluting them in the appropriate growth medium to between 40,000 cell/mL and 600,000 cell/mL, depending on the cell line.
(§5) The compounds to be tested were added (104, 10× final concentration) to a flat bottomed 96-well plate. The cellular suspension (80 μL per well) was added, and one hour later the growth factor was added (human M-CSF at 20 ng/ml for mNFS-60, mouse IL-3 at 5 ng/ml for Baf3-WT). The plate was then incubated for 72 hr at 37° C., 5% CO2. Alamar Blue (10^4 per well) was added and the plates returned to the incubator for a further 4-8 hours.
(§6) The plates were then read using a fluorescence plate reader at excitation 544 nm and emission 590 nm.

Baf3-WT = assay: Cellular assay (Alamar Blue), Baf3-WT with mouse IL-3; assay type: cell-based; details: mouse IL-3 at 5 ng/ml, 72 hr
Description: as §4, §5, §6

## Cc1cncc(C(=O)Nc2cccc([C@H](C)Nc3cncc(-c4ccc(N5CCOCC5)nc4)n3)c2)c1 [Compound 79]
[1]
  IC50: < 0.1 µM
[2]
  IC50: < 0.1 µM
FLT-3 tyrosine kinase
  IC50: > 10 µM
PDGFR β tyrosine kinase
  IC50: < 1 µM

## Cc1cncc(C(=O)Nc2cccc([C@H](C)Nc3cncc(Cl)n3)c2)c1 [Compound 42, N-(3-{(1S)-1-[(6-chloropyrazin-2-yl)amino]ethyl}phenyl)-5-methylnicotinamide]
[2]
  IC50: < 0.1 µM
FLT-3 tyrosine kinase
  IC50: > 10 µM
PDGFR β tyrosine kinase
  IC50: < 1 µM

## COc1cc(-c2cncc(N[C@@H](C)c3cccc(NC(=O)c4ccc(C)nc4)c3)n2)ccc1N [Compound 38]
[1]
  IC50: < 0.1 µM
[2]
  IC50: < 0.1 µM
FLT-3 tyrosine kinase
  IC50: < 10 µM

## Cc1cncc(C(=O)Nc2cccc([C@H](C)Nc3cncc(-c4ccc(NCCN5CCOCC5)nc4)n3)c2)c1 [Compound 80]
[1]
  IC50: < 0.1 µM
[2]
  IC50: < 0.1 µM
FLT-3 tyrosine kinase
  IC50: > 10 µM
PDGFR β tyrosine kinase
  IC50: < 1 µM

## COc1cc(-c2cncc(NC(C)c3cccc(NC(=O)c4cccnc4)c3)n2)ccc1O (stereo not drawn) [Compound 1]
[2]
  IC50: < 0.1 µM
FLT-3 tyrosine kinase
  IC50: > 10 µM
PDGFR β tyrosine kinase
  IC50: < 1 µM

## COc1cc(-c2cncc(N[C@@H](C)c3cccc(NC(=O)c4cncc(C)c4)c3)n2)ccc1O [Compound 28]
[1]
  IC50: < 0.1 µM
[2]
  IC50: < 0.1 µM
FLT-3 tyrosine kinase
  IC50: < 10 µM
PDGFR β tyrosine kinase
  IC50: < 0.1 µM

## Cc1ccnc(C(=O)Nc2cccc([C@H](C)Nc3cncc(Cl)n3)c2)c1 [Compound 82]
[1]
  IC50: < 0.1 µM
[2]
  IC50: < 1 µM
FLT-3 tyrosine kinase
  IC50: > 10 µM
PDGFR β tyrosine kinase
  IC50: < 1 µM

## COc1cc(-c2cncc(N[C@@H](C)c3cccc(NC(=O)c4cccnc4)c3)n2)ccc1N [Compound 7]
[1]
  IC50: < 0.1 µM
[2]
  IC50: < 0.1 µM
FLT-3 tyrosine kinase
  IC50: < 10 µM
PDGFR β tyrosine kinase
  IC50: < 0.1 µM

## Cc1cc(C(=O)Nc2cccc([C@H](C)Nc3cncc(Cl)n3)c2)ccn1 [Compound 83]
[2]
  IC50: < 1 µM
FLT-3 tyrosine kinase
  IC50: < 1 µM
PDGFR β tyrosine kinase
  IC50: < 1 µM

## Cc1cccc(C(=O)Nc2cccc([C@H](C)Nc3cncc(-c4ccc(N5CCOCC5)cc4)n3)c2)c1 [Compound 81]
[1]
  IC50: < 0.1 µM
[2]
  IC50: < 0.1 µM
FLT-3 tyrosine kinase
  IC50: > 10 µM
PDGFR β tyrosine kinase
  IC50: < 1 µM

## COc1cc(-c2cncc(N[C@@H](C)c3cccc(NC(=O)c4cncc(C)c4)c3)n2)ccc1N [Compound 29]
[1]
  IC50: < 0.1 µM
[2]
  IC50: < 0.1 µM
FLT-3 tyrosine kinase
  IC50: < 10 µM
PDGFR β tyrosine kinase
  IC50: < 0.1 µM

## Cc1cccc(C(=O)Nc2cccc([C@H](C)Nc3cncc(N4CCC(O)CC4)n3)c2)c1 [Compound 95]
[1]
  IC50: < 0.1 µM
[2]
  IC50: < 1 µM
FLT-3 tyrosine kinase
  IC50: > 10 µM
PDGFR β tyrosine kinase
  IC50: < 1 µM

## Cc1ccc(C(=O)Nc2cccc([C@H](C)Nc3cncc(Cl)n3)c2)cc1 [Compound 93]
[2]
  IC50: < 1 µM
FLT-3 tyrosine kinase
  IC50: > 10 µM
PDGFR β tyrosine kinase
  IC50: < 1 µM

## Cc1cccc(C(=O)Nc2cccc([C@H](C)Nc3cncc(-c4ccc(O)nc4)n3)c2)c1 [Compound 90]
[1]
  IC50: < 0.1 µM
[2]
  IC50: < 1 µM
FLT-3 tyrosine kinase
  IC50: < 10 µM
PDGFR β tyrosine kinase
  IC50: < 1 µM

## COc1cc(-c2cncc(N[C@@H](C)c3cccc(NC(=O)c4cccc(C)c4)c3)n2)ccc1O [Compound 76]
[1]
  IC50: < 0.1 µM
[2]
  IC50: < 0.1 µM
FLT-3 tyrosine kinase
  IC50: < 10 µM
PDGFR β tyrosine kinase
  IC50: < 1 µM

## COc1cccc(-c2cncc(N[C@@H](C)c3cccc(NC(=O)c4cncc(C)c4)c3)n2)c1 [Compound 24]
[1]
  IC50: < 0.1 µM
[2]
  IC50: < 0.1 µM
FLT-3 tyrosine kinase
  IC50: < 10 µM
PDGFR β tyrosine kinase
  IC50: < 0.1 µM
KDR protein kinase
  IC50: < 0.1 µM
mNFS-60
  IC50: < 0.2 µM
Baf3-WT
  IC50: > 10 µM

## C[C@H](Nc1cncc(Cl)n1)c1cccc(NC(=O)c2ccc(CN3CCN(C)CC3)cc2)c1 [Compound 91]
[1]
  IC50: < 0.1 µM
[2]
  IC50: < 1 µM
FLT-3 tyrosine kinase
  IC50: > 10 µM
PDGFR β tyrosine kinase
  IC50: < 1 µM
